Measurements as given in patent US20260092919A1, “REAGENT FOR MEASURING TYROSINE KINASE ACTIVITY, AND USE THEREOF” (HILO CO. LTD., priority 2022, published 2026).

Legend:
[1] = tested on: EGFR tyrosine kinase activity; assay: FRET efficiency (FRET/CFP) time-lapse imaging in Cos-1 cells expressing biosensor; type: cell-based, African green monkey
Procedure: (§1) Fluorescence images of cells were acquired using an IX81 research-grade inverted microscope (Olympus) equipped with a stage incubator (LCI), a motorized XY-stage (Chuo Precision Industrial), and a CoolSNAP Myo cooled charge-coupled device (CCD) camera (Nippon Roper) under the control of MetaMorph software (Molecular Devices Japan). […] White light from a SOLA light engine (Lumencore) was attenuated by a 20% neutral density filter and used as excitation light after interference by each filter. Images were captured using a 60× oil immersion objective lens (numerical aperture 1.40) (4×4 binning, fluorescence images: exposure time 200 msec, differential interference contrast images: exposure time 20 msec).
(§2) After 24 hours, the medium was changed to phenol red-free MEM-F12 medium, and the cells were serum-starved for 4 hours. Time-lapse fluorescence imaging was then initiated, with FRET, CFP, and DIC images acquired every 30 seconds. Cells were stimulated by adding EGF to a final concentration of 50 ng/ml at 10 minutes after starting imaging, and imaging was continued for another 50 minutes. Following background subtraction, FRET efficiency was calculated as the ratio of cellular fluorescence intensity (FRET/CFP) from each channel at each time point.

[2] = molecular target: T1, EGFR tyrosine kinase activity in A549 cells (Homo sapiens, UniProt P00533); assay: FRET efficiency in A549 cells expressing Pickles_2.34NES; type: cell-based
T1 construct: pFX-Pickles_2.34NES was introduced into A549 cells and H1299 cells; endogenous in cells; host or cells: A549
Procedure: as §1, §2

[3] = molecular target: EGFR tyrosine kinase activity in HCC827 cells (Homo sapiens, UniProt P00533, DEL746-750); assay: FRET efficiency in HCC827 cells expressing Pickles biosensor
Procedure: as §1, §2

[4] = tested on: EGFR tyrosine kinase activity in H1299 cells; assay: FRET efficiency in H1299 cells expressing Pickles_2.34NES
Procedure: as §1, §2

change in FRET efficiency upon EGF stimulation [2]	response of FRET efficiency to EGF stimulation compared to Pickles_2.34 [3]	Substance	change in FRET efficiency with HGF stimulation ([1]; Cos-1 cells expressing Pickles, HGF instead of EGF, same amount)	increase in FRET efficiency upon EGF stimulation ([1]; Cos-1 cells expressing the biosensor, EGF 50 ng/ml) [%]	increase in FRET efficiency upon EGF stimulation [4]
–	–	Pickles_2.34: SEQ ID NO: 6: m1Venus, CrkL residues 1-222 with D94A, cp173-ECFP FRET biosensor	did not change	77.7	–
increased significantly	higher sensitivity	Pickles_2.34NES: SEQ ID NO: 7: Pickles_2.34 with the NES from protein kinase A inhibitor added to its N-terminus	–	–	slight
